What was measured:
[1] = test system: AADH; assay: AADH in vitro enzyme activity assay from yeast cell lysates; format: biochemical; conditions: in vitro, expressed in yeast
Experimental: AADH activity was measured as described by Kozak et al. (2014, Metab. Eng. 21:46-59) by monitoring the reduction of NAD^+ at 340 nm at 30° C. The yeast cells for the cell lysates were collected, washed with water, and then resuspended into lysis buffer containing 100 mM Tris-HCl buffer (pH 7.5) and 1×EDTA free protease inhibitor cocktail (Roche). The cells were lysed with glass beads in a Precellys 24 homogenizer at 5500 rpm for 3×40 seconds and kept on ice between rounds. Lysates were centrifuged at 16 000 g for 20 min at 4° C. and supernatants were collected. The total protein concentration was determined using the Bradford method.
The enzyme assay reaction mixture contained 0.1 mM Coenzyme A, 50 mM CHES buffer (pH 9.5), 0.8 mM NAD^+, 0.2 mM DTT and 10 μL of cell extract in a total reaction volume of 200 μL. The reaction was started by adding 10 mM of freshly prepared acetaldehyde solution and reduction of NAD^+ was followed with a Thermo Konelab 20XT analyser.
Five AADH genes were originally chosen (i.e. ADHEpm, ADHEec, EUTec, EUTdz and LIN1129li) and transformed into the CEN.PK lab strain. These AADHs were expressed from a multicopy plasmid where they were under control of the TEF1 promoter.
Twenty additional novel AADH genes were chosen from the genome mining analyses to be evaluated for expression and enzyme activity in yeast.

[2] = test system: S. cerevisiae VSK-128 ACS2 deletion strain; assay: AADH in vivo growth assay, ACS2 deletion strain on glucose-based agar plates; format: cell-based
Source text: All copies of the ACS2 gene were deleted from the industrial S. cerevisiae VSK-128 strain in order to generate a strain with a defective PDH-bypass that was incapable of growth on glucose-based medium. Expression vectors carrying the 25 different AADH variants were then transformed into this ACS2 deletion strain to evaluate their ability to recover the growth of this strain on glucose.
There was a good correlation between the in vitro AADH enzyme activity assays and the in vivo growth recovery analyses.

[3] = test system: ACC1; assay: ACC radioactive enzyme assay (14C carbonate) from yeast cell lysates; format: biochemical, S. cerevisiae; conditions: strains of Table 13, FIG. 2
Source text: The most commonly used in vitro ACC assay is based on the usage of radioactive ^14C carbonate. The incorporation of radioactive carbonate into an acid and a non-volatile material (i.e. malonyl-CoA) is followed. The ^14C-labelled sodium bicarbonate which has not been converted to malonyl-CoA is removed by an acid and heat treatment which converts the remaining NaH14CO3 and the possible side products of the reaction into ^14C-labelled CO2.
This assay described by Diacovich et al. (2002, J. Biol. Chem. 277:31228-31236) has been used to detect ACC activity from yeast lysates (Shi et al. 2014, mBIO 5:3 e01130-14) with slight modifications. The cell lysates were prepared from yeast cells harvested during late exponential or stationary phase. The cells were washed and then resuspended in lysis buffer containing 100 mM potassium phosphate pH 7.5, 2 mM MgCl2, 1 mM dithiothreitol and 1×EDTA free Complete protease inhibitor (Roche). The cells were disrupted by glass beads and the supernatant was collected after centrifugation at 4° C. […]
The reaction was incubated at 30° C. for 15 min, and stopped by adding 50 μL of 5 M HCl. […] The ^14C content of the samples was determined using a liquid scintillation counter (PerkinElmer Tri-Carb 2810TR). […]
The radioactive ACC enzyme assay is very sensitive, even pmol/mg/min activities can be detected. […]

Substance	AADH activity [1]	recovery of the growth deficiency of the ACS2-deletion strain [2]	relative ranking on ACC1 activity [3]
ADHEec: adhE type AADH of Escherichia coli K-12 substr. MG1655, GenBank NP_415757.1	showed AADH activity	capable of recovering the growth deficiency	
ACCyl: acetyl-CoA carboxylase of Yarrowia lipolytica CLIB122, GenBank XP_501721.1			most promising candidate
